Consider nine molecules from patent US6579696B1, “Polymyxin B conjugates” (priority 1992, dated 2003).

Series [1] deals with Fc receptors of the human U937 monocyte/macrophage cell line (human). As to the kind of experiment: 1×10^-8 M 125I-IgG on 2×10^5 U937 cells, no competitor.
The target is the same in series [2]. Description: saturation binding of 125I-IgG to 2×10^5 U937 cells.
For series [3] the following is noted: vancomycin after reaction with crosslinker, aqueous solution.
From the text: Vancomycin in phosphate buffer was reacted with each of the following compounds: sulfosuccinimidyl 6-[3-(2-pyridyldithio)propionamide]hexanoate (“sulfo-LC-SPDP”), m-maleimidobenzoyl-N-hydroxysulfosuccinimide ester (“sulfo-MBS”), sulfosuccinimidyl(4-iodoacetyl)aminobenzoate (“sulfo-SIAB”), and sulfosuccinimidyl 4-(p-maleimidophenyl)butyrate (“sulfo-SMPB”). All four crosslinking agents react with a primary amino group on the vancomycin molecule, resulting in the formation of an amide bond. […] Finally, vancomycin derivatized by sulfo-SIAB posesses an iodo group, which can also react with a sulfhydryl group on either reduced IgG or derivatized IgG, by nucleophilic substitution for the iodo group. […] The mixtures were incubated with agitation at ambient temperature.
The subject of the next series is S. aureus. As to the kind of experiment: MIC testing against S. aureus. It is filed as cell-based, Staph. aureus. The conditions noted are these: Staphylococcus aureus. The method, then:
1.5 ml fractions were collected. The fractions in the void volume were pooled and sterile filtered. The activity of the conjugate was determined by standard MIC testing against S. aureus.

Series [4] deals with Staphylococcus epidermidis. Description: MIC and MBC. It is filed as cell-based.
Series [5] relates to E. coli H16. It is filed as cell-based. The conditions noted are these: Table 42.
Series [6] concerns E. coli 25922. Format: cell-based. The conditions noted are these: Table 42.
The test system of series [7] is E. coli H16.
The subject of series [8] is E. coli 25922.
The test system of series [9] is E. coli 0111:B4.
The subject of series [10] is Salmonella 34576. The conditions noted are these: Table 43.
The target in series [11] is avidin (Sigma) (UniProt P02701). Description: capture ELISA: PMB-Cys-Biotin on avidin-coated wells, detected with chicken anti-PMB 1/1000; maximally diluted sample of a 5-fold series from 10 ng/ml.
Series [12] relates to E. coli 0111:B4. Format: cell-based. Also noted: key: −: no agglutination; +: microagglutination; +++: macroagglutination. Conditions: avidin beads loaded with compound. On the procedure:
(§1) 100 ul polystyrene beads (Spherotech […], 5% w/v) were aliquoted to two 1.5 mL microcentrifuge tubes, centrifuged 1 min at 12,000 g in microcentrifuge and washed 2×with 1 ml PBS (vortexed and recentrifuged 1-2 min after each wash). The beads were resuspended in 900 ul PBS, and 100 ul of 1 mg/ml solution of avidin (Sigma) added, and the tubes rotated overnight at room temperature. The beads were pelleted, and washed sequentially as described above with 1 ml PBS, PBS+0.5% tween 20 (PBST), and PBS, and each sample resuspended in 200 ul PBS. The samples were pooled and stored at 4 degrees.
(§2) 20 ul avidin coated beads were aliquoted into 2×1.5 ml microcentrifuge tubes, and non-specifically binding sites blocked by rotating with 1 ml PBS+1% BSA for 1 hr at room temperature. […] The samples were pelleted, and washed with 1 ml PBS, repelleted and resuspended with 20 ul PBS. III Bacterial Agglutination Assays
(§3) 5 ul of each resin was added to 20 ul bacteria (1/10 dilution of a saturated overnight culture) in independant depression wells (2 wells/bacteria tested). The samples were incubated 30 min at 37 degrees, swirled, and agglutination scored. (Note that −=no agglutination, +=microagglutination and +++=macroagglutination)

Series [13] deals with E. coli HB101. Format: cell-based. The conditions noted are these: avidin beads loaded with compound. Also noted: key: −: no agglutination; +: microagglutination; +++: macroagglutination. The method, then:
as §1, §2, §3

Series [14] deals with Salmonella 34576. It is filed as cell-based. Also noted: key: −: no agglutination; +: microagglutination; +++: macroagglutination. The conditions noted are these: avidin beads loaded with compound. On the procedure: as §1, §2, §3
Series [15] has as its target avidin and chicken anti-PMB antibody (Gallus gallus, UniProt P02701).
Method: The capture ELISA was performed as described below. […] The coating suspensions were decanted, and all wells were washed three times using PBS+0.5% Tween 20 (PBST). In order to block non-specific binding sites, 100 ul of 1% BSA (Sigma, St. Louis, Mo.) in PBS (blocking solution) was then added to each well, and the plates were incubated for 1 hr. at 37° C.
The blocking solution was decanted, and duplicate samples of 150 ul of either PMB-Cy-Biotin or PMB-Cy-Fl added to the first well of a dilution series. The initial testing concentration of the premixed conjugate was 10 ng/ml in blocking buffer (see above), followed by 5 fold dilutions in blocking buffer. This was accomplished by serially transferring 30 ul aliquots to 120 ul buffer, mixing, and repeating the dilution into a fresh well. After the final dilution, 30 ul was removed from the well such that all wells contained 120 ul final volume. A total of 2 such dilutions were performed. […] Following this incubation, the serially diluted samples were decanted, and the wells were washed six times using PBST (Phosphate-Buffered Saline with Tween). To each well, 100 ul of 1/1000 diluted chicken anti-PMB antibody or chicken preimmune, diluted in blocking buffer was added, and the plate incubated 1 hr at 37° C. The antibody solutions were decanted and the plates were washed as described above. To each well, 100 ul of 1/1000 diluted rabbit anti-chicken IgG alkaline phosphatase (Sigma) diluted in blocking buffer was added, and the plate incubated 1 hr at 37° C. The antibody solutions were decanted and the plates were washed as described above, substituting 50 nM Na2CO3, pH 9.5 for the PBST in the final wash. The plates were developed by the addition of 100 ul of a solution containing 1 mg/ml para-nitro phenyl phosphate (Sigma, St. Louis, Mo.) dissolved in 50 nM Na2CO3, 10 mM MgCl2, pH 9.5 to each well, and incubating the plates at room temperature in the dark overnight. […] Only the ELISA readings from the maximally diluted samples in each dilution series are shown.
The next series has as its system E. coli J5. It is filed as cell-based. Conditions: for Agglutination by avidin beads: Table 53. The arrangement: key: −: no agglutination; +: microagglutination; +++: macroagglutination. The method, then:
as §1, §2, §3
To determine if free Immunoadaptor™ compounds can also stably bind surface exposed bacterial structures, agglutination assays were performed using bacteria prebound to Immunoadaptor™ compounds. The assay was performed with J5 bacteria, since the agglutination signal (see table above) was the strongest with this strain. 40 ul avidin coated resin was blocked for 1 hr at room temperature with 1 ml PBS+1% BSA, pelleted as described above, and resuspended in 40 ul PBS. […] The following assays were performed:
Incubated 1 hr at 37 degrees in depression well, swirled and agglutination scored.
Incubated 10 min at 37 degrees then added 5 ul avidin coated beads. Incubated 1 hr at 37 degrees in depression well, swirled and agglutination scored.
Incubated 15 min at 37 degrees, pelleted cells by centrifugation, washed with 100 ul PBS (resuspended cells with micropipetter) and repelleted. Cells were resuspended in 80 ul PBS, 20 ul aliquots distributed to depression well, 5 ul avidin coated beads added, and, incubated 1 hr at 37 degrees, swirled and agglutination scored.

Series [16] deals with J5 bacteria phagocytosed by J774A.1 mouse macrophage cell line. Format: cell-based. The conditions noted are these: Table 57; + anti-avidin (1/1000).
Series [17] deals with E. coli HB101. Description: MIC and MBC in broth. Format: cell-based. Conditions: Example 38.
Series [18] deals with E. coli HB101.
The test system of the next series is R. sphaeroides LPS. Description: Polarization of PMB-FITC by LPS. It is filed as binding. The conditions noted are these: 50 ul of 1 mg/ml LPS; PMB-FITC 1 to 150.
The subject of another series is S. typhimurium LPS. Description: Polarization of PMB-FITC by LPS. Conditions: 50 ul of 1 mg/ml LPS; PMB-FITC 1 to 150. It is filed as binding.
In a further series the test system is E. coli 011B4 LPS. It is filed as binding. The conditions noted are these: 50 ul of 1 mg/ml LPS; PMB-FITC 1 to 150. From the text: (§4) The data for this example were generated on a fluorescence polarimeter (FPM-1, provided by Jolley Consulting and Research, Inc.) based on this optical configuration. The instrument and software generates output which includes vertical intensity (IV), horizontal intensity (IH), total intensity (IT) after correction of horizontal intensity by a constant (g), fluorescence polarization in millipolarization unit (mP) and lamp feed-back, a correction for lamp and photomultiplier tube variations.
(§5) Each of ten different lipopolysaccarides (LPS) were dissoved in distilled water at a concentration of 1 mg/ml.

The next series deals with S. flexneri LPS. It is filed as binding. Conditions: 50 ul of 1 mg/ml LPS; PMB-FITC 1 to 150.
From the text: as §4, §5

The subject of a further series is E. coli 026B6 LPS. Format: binding. The conditions noted are these: 50 ul of 1 mg/ml LPS; PMB-FITC 1 to 150.
From the text: as §4, §5

In the next series the test system is V. cholera LPS. It is filed as binding. Conditions: 50 ul of 1 mg/ml LPS; PMB-FITC 1 to 150.
From the text: as §4, §5

A further series relates to S. enteriditis LPS. As to the kind of experiment: Polarization of PMB-FITC by LPS. Format: binding. The conditions noted are these: 50 ul of 1 mg/ml LPS; PMB-FITC 1 to 150.
A further series relates to P. aeruginosa LPS. As to the kind of experiment: Polarization of PMB-FITC by LPS. Format: binding. The conditions noted are these: 50 ul of 1 mg/ml LPS; PMB-FITC 1 to 150.
Another series has as its system S. marsecens LPS. As to the kind of experiment: Polarization of PMB-FITC by LPS. Conditions: 50 ul of 1 mg/ml LPS; PMB-FITC 1 to 150. It is filed as binding.
Another series deals with K. pneumoniae LPS. As to the kind of experiment: Polarization of PMB-FITC by LPS. Format: binding. The conditions noted are these: 50 ul of 1 mg/ml LPS; PMB-FITC 1 to 150.
Series [19] has as its target polymyxin B-cysteine-maleimide-fluorescein (PMB-Cys-Mal-FL) (Bacillus polymyxa). As to the kind of experiment: fluorescence polarization, antibody 5×10^-8 M with PMB-Cys-Mal-FL 10^-7 M (free conjugate: 32.5 mP). (In general: Fluorescence polarisation rises when a labelled molecule tumbles more slowly, as on binding a larger partner.)
For series [20] the target is unchanged. As to the kind of experiment: quenching of PMB-Cys-Mal-FL coated on E. coli 0111:B4; antibody 2 ug/ml (without antibody: 40).
Series [21] has the same target. As to the kind of experiment: fluorescence quenching on PMB-Cys-Mal-FL coated E. coli.
Series [22] has the same target. Description: fluorescence polarization, antibody 5×10^-8 M with PMB-Cys-Mal-FL 10^-7 M (free conjugate: 845).
Series [23] shares this target. As to the kind of experiment: fluorescence intensity of PMB-Cys-Mal-FL with antibody.
Series [24] has the same target. Description: quenching of PMB-Cys-Mal-FL coated on E. coli 0111:B4; antibody 22 ug/ml (without antibody: 40).
Series [25] has the same target. Description: fluorescence polarization, antibody 5×10^-8 M with PMB-Cys-Mal-FL 10^-7 M (free conjugate: 740).
Series [26] shares this target. Description: quenching of PMB-Cys-Mal-FL coated on E. coli 0111:B4; antibody 1 ug/ml (without antibody: 40).
Series [27] concerns the target avidin (Sigma) (UniProt P02701). Description: capture ELISA: PMB-Cys-FL on avidin-coated wells, detected with chicken anti-PMB 1/1000. (In general: An ELISA detects its analyte on a solid surface through an enzyme-linked reagent.)
The target is the same in series [28]. As to the kind of experiment: capture ELISA: PMB-Cys-FL on avidin-coated wells, chicken preimmune 1/1000 (double control).
Where [29] appears, read: Table 40, first number of the cell.

Values after ≈ are worked out from the molar mass of the structure shown. Where two headings read alike, the source gives them in different places. Ends that are not written are not given here.

Chain of avidin (Sigma) (P02701 25-152 limits assumed): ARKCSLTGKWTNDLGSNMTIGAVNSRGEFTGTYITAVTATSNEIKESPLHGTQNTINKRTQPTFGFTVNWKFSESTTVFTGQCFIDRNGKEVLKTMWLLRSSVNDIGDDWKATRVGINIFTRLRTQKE
Chain of avidin and chicken anti-PMB antibody (P02701 25-152): as the sequence (P02701 25-152 limits assumed) above

For “125I-labelled human IgG (New England Nuclear) (antibody)”, the bound radioactivity (cpm) in [1] is 12000 cpm. The same molecule showed a saturating concentration in series [2] of 10 nM.
As to `CN[C@H](CC(C)C)C(=O)N[C@H]1C(=O)N[C@@H](CC(N)=O)C(=O)N[C@H]2C(=O)N[C@H]3C(=O)N[C@H](C(=O)N[C@H](C(=O)O)c4cc(O)cc(O)c4-c4cc3ccc4O)[C@H](O)c3ccc(c(Cl)c3)Oc3cc2cc(c3O[C@@H]2O[C@H](CO)[C@@H](O)[C@H](O)[C@H]2O[C@H]2C[C@](C)(N)[C@H](O)[C@H](C)O2)Oc2ccc(cc2Cl)[C@H]1O` [Vanco, Vancomycin], the Soluble entry in series [3] is listed as “Yes”. The figures for the MIC with S. aureus and with S. aureus (read-out: MIC w/o IgG) were 1 to 2 µg/mL (≈ 0.69 to 1.38 µM) and 1 µg/mL (≈ 0.69 µM), respectively. Also, the MBC (in general, the smallest concentration meeting the test's criterion for killing) in series [4] worked out at 2.5 µg/mL (≈ 1.73 µM).
Take “ALYKKLLKKLLKSAKKLG [C18G, ala-leu-tyr-lys-lys-leu-leu-lys-lys-leu-leu-lys-ser-ala-lys-lys-leu-gly, reference compound]”: the BDA in the series with E. coli H16 [5] is 5 to 10 µg/mL; in the series on E. coli 25922 [6], 1 µg/mL. For the same molecule, the MIC against E. coli H16 [7] was 30 µg/mL; against E. coli 25922 [8] it was 2 to 4 µg/mL; with E. coli 0111:B4 [9] (0111:B4), 10 µg/mL; against Salmonella 34576 [10] it was 5 to 10 µg/mL.
As to “Biotinylated Cysteinyl PMB (PMB-Cys-Biotin) (peptide)”, the absorbance at 410 nm with avidin (Sigma) [11] turned out to be 1.25 A410.
For “Biotinylated Cysteinyl PMB [PMB-Cys-Biotin]”, the Agglutination entry with E. coli 0111:B4 [12] is “−”; in the series with E. coli HB101 [13], “+”; in the series on Salmonella 34576 [14], “+”; in the series with E. coli J5 (avidin beads loaded with compound) it was “+++”. For the same molecule, the “ELISA absorbency at 410 nm” value in series [15] (Anti-PMB test antibody, Avidin coated wells, maximally diluted sample) turned out to be 1.252; in [15] (Anti-PMB, PBS coated wells), 0.016; in [15] (Preimmune, Avidin coated wells) it was 0.014; in series [15] (Preimmune, PBS coated wells), 0.019. In addition, the “Agglutination by avidin beads” value in the series on E. coli J5 (Chase format), with E. coli J5 (Premix format) and in the series with E. coli J5 (Wash + Chase format) was “+” each time. Also, the MIC against E. coli 0111:B4 [9] (setting [29]) stood at 1.0 µg/mL. Moreover, the “% Macrophage with phagocytosed bacteria” value in [16] was 21%. In addition, the Recovered bacterial colonies in series [16] is 74.
On to “Limulus antilipopolysaccharide factor [native LALF]”, for which the MIC with E. coli HB101 [17] is 16 µg/mL.
As for “PMB-5-Thiocabamoyl-fluorescein [PMB-FITC]”, the MIC against E. coli HB101 [18] (setting [29]) and in the series on E. coli HB101 [18] (Table 44) was 0.2 µg/mL in each case. Also, the mP in the series on R. sphaeroides LPS was found to be 224.7; in the series with S. typhimurium LPS, 266.8; with E. coli 011B4 LPS, 254.6; in the series on S. flexneri LPS, 246.3; with E. coli 026B6 LPS, 70.3; in the series on V. cholera LPS it was 174.8. Also, the mP was found to be 255.9 with S. enteriditis LPS, 236.4 in the series with P. aeruginosa LPS, 262.6 in the series on S. marsecens LPS and 258.5 in the series with K. pneumoniae LPS.
For “mouse monoclonal anti-fluorescein antibody (#4-4-20)”, in series [19], the mP (millipolarization) turned out to be 390 mP. The FLUORESCENCE (AFU) in [20] came to 15 AFU; in series [24] it was 15 AFU; in series [26], 16 AFU. In [21], this molecule yielded a fraction of fluorescein available to bind the antibody of 0.67. The same molecule returned an IV (vertical intensity) in series [22] of 61. This molecule yielded a percent of the intensity signal quenched in [23] of 95%. Also, the IH (horizontal intensity) in series [25] was found to be 25.
As for “polymyxin B-cysteine-maleimide-fluorescein (PMB-Cys-Mal-FL) (peptide)”, the absorbance at 410 nm in the series with avidin (Sigma) [27] was 0.033 A410; with avidin (Sigma) [28] it was 0.01 A410.
